Assay results published in PMC8683663 (International Journal of Pharmaceutics: X, 2021).
≈ marks a conversion by molar mass, not a printed value. Like-named read-outs stand apart in the source and are kept apart here.

Key:
[1] = 10 mg/kg encequidar, oral; ref Smolinski et al., 2021; cited from earlier work
[2] = Pharmacokinetic dose escalation study in rats; format: in vivo, Sprague Dawley rats; details: for bioavailability: Etoposide Bioavailability; for Zosuquidar tmax: median [Q1;Q3]
[3] = ref Al-Ali et al., cited from earlier work; for oral bioavailability of etoposide: 2020
[4] = Bidirectional etoposide permeability across Caco-2 cell monolayers; format: in vitro ADME; details: human, Caco-2, pH 7.4
Caco-2 cell monolayers [5] = experiment: as above; format: in vitro ADME; details: in the presence of more than 79 nM zosuquidar; Caco-2
[6] = mdr1a(−/−) (P-gp) knockout rats; ref Al-Ali et al., 2018a; cited from earlier work
[7] = Etoposide solubility in ethanol-water mixtures; format: physicochemical; details: 22 °C, thermodynamic from solid
[8] = for precipitation upon dilution in rSIF (visual): 1:1 in rSIF; for initial zosuquidar solubility: supernatant, 37 °C
P-gp = experiment: In vitro-in vivo correlation of P-gp inhibition; details: 180 μM intestinal concentration in vivo vs. 5–10 nM in Caco-2
[9] = Zosuquidar recovery in the compartments of the Caco-2 Transwell system; format: in vitro ADME; details: for zosuquidar left in solution / zosuquidar recovery: 120 min, mean ± SEM, n = 24; for zosuquidar left in solution: % of added
[10] = 20 mg/kg zosuquidar IV; ref Anderson et al., 2006; cited from earlier work
[11] = weak base; ref Drugbank, 2021; cited from earlier work
Caco-2 cell monolayers [12] = experiment: Lucifer yellow permeability; format: in vitro ADME
[13] = etoposide 5 mg/kg IV, by an oral dose of 20 mg/kg zosuquidar (group B vs A)
[14] = group B: zosuquidar 20 mg/kg oral + etoposide 5 mg/kg IV, mean ± SEM, n = 6
[15] = group F: zosuquidar 0.63 mg/kg oral + etoposide 20 mg/kg oral, mean ± SEM, n = 6
[16] = group G: zosuquidar 2.0 mg/kg oral + etoposide 20 mg/kg oral, mean ± SEM, n = 6
[17] = group H: zosuquidar 6.3 mg/kg oral + etoposide 20 mg/kg oral, mean ± SEM, n = 6
[18] = group I: zosuquidar 20 mg/kg oral + etoposide 20 mg/kg oral, mean ± SEM, n = 6
[19] = group J: zosuquidar 63 mg/kg oral + etoposide 20 mg/kg oral, mean ± SEM, n = 6

Compound: COc1cc2c(cc1OC)CN(CCc1ccc(-n3nnc(-c4cc(OC)c(OC)cc4NC(=O)c4cc(=O)c5ccccc5o4)n3)cc1)CC2 [encequidar]
- encequidar Cmax [1]: 7.1 ng/mL
- encequidar bioavailability [1]: 6.25%

Compound: COc1cc([C@@H]2c3cc4c(cc3[C@@H](O[C@@H]3O[C@@H]5CO[C@@H](C)O[C@H]5[C@H](O)[C@H]3O)[C@H]3COC(=O)[C@H]23)OCO4)cc(OC)c1O [etoposide]
- increase of etoposide AUC0-6h [2, 13]: 34%
- increase of etoposide t½ [2, 13]: 37%
- Etoposide Bioavailability ([2]; group D: etoposide 20 mg/kg oral, no zosuquidar, mean ± SEM, n = 6): 5%
- AUC(0-t) ([2]; male, Sprague Dawley, rat, plasma, po, 20 mg/kg, Etoposide AUC0-6h, group I: etoposide 20 mg/kg oral + zosuquidar 20 mg/kg oral, mean ± SEM, n = 6): 3530 ± 460 ng·h/mL
- bioavailability ([2]; male, Sprague Dawley, rat, plasma, po, 20 mg/kg, group D: etoposide 20 mg/kg oral, no zosuquidar, mean ± SEM, n = 6): 5.5 ± 0.9%
- bioavailability ([2]; male, Sprague Dawley, rat, plasma, po, 20 mg/kg, group I: etoposide 20 mg/kg oral + zosuquidar 20 mg/kg oral, mean ± SEM, n = 6): 20.5 ± 2.7%
- oral bioavailability of etoposide ([3]; 20 mg/kg etoposide oral + 20 mg/kg oral zosuquidar): 34.5%
- absolute etoposide bioavailability ([3]; wild-type rats, 2018a): 27 ± 5%
- oral bioavailability of etoposide ([3]; without zosuquidar): 4.0%
- recovery at 120 min, 50 µM [4]: 95 to 117%
- decrease of etoposide B-A permeability (Caco-2 cell monolayers [5]): 5 fold
- increase of etoposide A-B permeability (Caco-2 cell monolayers [5]): 4 fold
- oral etoposide bioavailability [6]: 92%
- solubility at 24 h ([7]; absolute ethanol, organic solvent or mixture): 891 ± 8 µg/mL (≈ 1510 µM)
- solubility at 24 h ([7]; ethanol-water mixture): 9230 ± 420 µg/mL (≈ 15700 µM)
- solubility at 24 h ([7]; water): 92.4 ± 3.4 µg/mL (≈ 157 µM)
- precipitation upon dilution in rSIF (visual) ([8]; etoposide, any formulation): did not precipitate

Compound: O[C@@H](COc1cccc2ncccc12)CN1CCN([C@@H]2c3ccccc3[C@@H]3[C@H](c4ccccc42)C3(F)F)CC1 [zosuquidar]
- in vitro-in vivo discrepancy of zosuquidar P-gp inhibition (P-gp): at least four orders of magnitude
- zosuquidar plasma concentration ([2]; 2 h after a 5 mg/kg IV bolus): 0.13 µg/mL
- Zosuquidar AUC0-6h [2, 14]: 94.2 ± 12.4 ng·h/mL
- Zosuquidar Bioavailability [2, 14]: 2.81±0.37%
- Zosuquidar Cmax [2, 14]: 23.7 ± 3.6 ng/mL
- Zosuquidar t½ terminal [2, 14]: 2.88 ± 0.167 h
- Zosuquidar tmax ([2]; group B: zosuquidar 20 mg/kg oral + etoposide 5 mg/kg IV, n = 6): 120[60;135] min
- Zosuquidar AUC0-6h ([2]; group C: zosuquidar 5.0 mg/kg IV, mean ± SEM, n = 3): 830 ± 87 ng·h/mL
- Zosuquidar CL ([2]; group C: zosuquidar 5.0 mg/kg IV, n = 3): 102 ± 12 mL/min/kg
- Zosuquidar t½ terminal ([2]; group C: zosuquidar 5.0 mg/kg IV, two-compartment model, mean ± SEM, n = 3): 2.33 ± 0.4 h
- Zosuquidar AUC0-6h [2, 15]: 4.45 ± 0.86 ng·h/mL
- Zosuquidar Bioavailability [2, 15]: 4.21±0.81%
- Zosuquidar Cmax [2, 15]: 1.34 ± 0.28 ng/mL
- Zosuquidar t½ terminal [2, 15]: 1.37 ± 0.0917 h
- Zosuquidar tmax ([2]; group F: zosuquidar 0.63 mg/kg oral + etoposide 20 mg/kg oral, n = 6): 120[101;120] min
- Zosuquidar AUC0-6h [2, 16]: 8.67 ± 0.77 ng·h/mL
- Zosuquidar Bioavailability [2, 16]: 2.58±0.23%
- Zosuquidar Cmax [2, 16]: 2.10 ± 0.27 ng/mL
- Zosuquidar t½ terminal [2, 16]: 3.62 ± 0.45 h
- Zosuquidar tmax ([2]; group G: zosuquidar 2.0 mg/kg oral + etoposide 20 mg/kg oral, n = 6): 120[45;135] min
- Zosuquidar AUC0-6h [2, 17]: 43.6 ± 5.4 ng·h/mL
- Zosuquidar Bioavailability [2, 17]: 4.12±0.51%
- Zosuquidar Cmax [2, 17]: 10.9 ± 1.2 ng/mL
- Zosuquidar t½ terminal [2, 17]: 2.68 ± 0.217 h
- Zosuquidar tmax ([2]; group H: zosuquidar 6.3 mg/kg oral + etoposide 20 mg/kg oral, n = 6): 90[45;120] min
- Zosuquidar AUC0-6h [2, 18]: 118 ± 21 ng·h/mL
- Zosuquidar Bioavailability [2, 18]: 3.52±0.62%
- Zosuquidar Cmax [2, 18]: 31.3 ± 3.2 ng/mL
- Zosuquidar t½ terminal [2, 18]: 3.23 ± 0.383 h
- Zosuquidar AUC0-6h [2, 19]: 436 ± 91 ng·h/mL
- Zosuquidar Bioavailability [2, 19]: 4.12±0.86%
- Zosuquidar Cmax [2, 19]: 105 ± 21 ng/mL
- Zosuquidar t½ terminal [2, 19]: 3.97 ± 0.233 h
- Oral zosuquidar bioavailability ([2]; range over the oral zosuquidar doses, Sprague Dawley rats): 2.6–4.2%
- precipitation upon dilution in rSIF (visual) ([8]; 2.0 and 6.3 mg/mL zosuquidar (groups B, I, J)): precipitation was observed
- initial zosuquidar solubility ([8]; formulation B (2.0 mg/mL zosuquidar) diluted 1:1 in rSIF): 450 µg/mL
- dose strength being in solution ([8]; formulation B diluted 1:1 in rSIF): 44%
- initial zosuquidar solubility ([8]; formulation I (2.0 mg/mL zosuquidar) diluted 1:1 in rSIF): 520 µg/mL
- dose strength being in solution ([8]; formulation I diluted 1:1 in rSIF): 52%
- initial zosuquidar solubility ([8]; formulation J (6.3 mg/mL zosuquidar) diluted 1:1 in rSIF): 470 µg/mL
- dose strength being in solution ([8]; formulation J diluted 1:1 in rSIF): 15%
- precipitation upon dilution in rSIF (visual) ([8]; lower zosuquidar concentrations): remained clear
- reduction of free zosuquidar concentration in the receiver compartments ([9]; apical and basolateral, after 30 min, data not shown): 60–72%
- zosuquidar left in solution ([9]; apical compartment): 1.55 ± 0.06%
- zosuquidar left in solution ([9]; basolateral compartment): 7.01 ± 0.37%
- zosuquidar recovery ([9]; in the Caco-2 monolayer): 58.7 ± 5.0%
- zosuquidar recovery ([9]; in the cell culture plate): 31.8 ± 11.3%
- tolerability of IV zosuquidar [10]: no reported issues
- predicted pKa [11]: 7.6

Compound: lucifer yellow
- lucifer yellow Papp (Caco-2 cell monolayers [12]; 100 μM lucifer yellow, Caco-2, not affected by zosuquidar): below 1.1 × 10^−6 cm/s
- lucifer yellow recovery (Caco-2 cell monolayers [12]; Caco-2 permeability experiments): 82–110%
